This is an account of results in patent publication US9611262B2, “Substituted 2-azabicycles and their use as orexin receptor modulators” (JANSSEN PHARMACEUTICA NV, priority 2014, dated 2017).

In general, Ki refers to the equilibrium dissociation constant of an inhibitor or competing ligand from its target.

The target of one assay is human orexin 2 receptor (Homo sapiens (Human), UniProt O43614). Briefly: Human orexin 2 receptor radioligand binding ([3H]-EMPA competition). To be noted: HEK293 stably expressing human orexin 2 receptor; 2 nM [3H]-EMPA; averages of 2-20 runs; read-out: hOX2 Ki. The method, then:
(§1) The in vitro affinity of the compounds of the invention for the rat/human orexin 1 and human orexin 2 receptors was determined by competitive radioligand binding using [^3H](1-(5-(2-fluoro-phenyl)-2-methyl-thiazol-4-yl)-1-((S)-2-(5-phenyl-(1,3,4)oxadiazol-2-ylmethyl)-pyrrolidin-1-yl)-methanone) (Langmead et al., 2004) and [^3H]EMPA (n-ethyl-2[96-methoxy-pyridin-3-yl)-(toluene-2-sulfonyl)-amino]-N-pyridin-3-ylmethyl acetamide), respectively (Langmead et al., 2004, British Journal of Pharmacology 141:340-346; Malherbe et al., 2004, British Journal of Pharmacology 156:1326-41).
(§2) Data are analyzed using pc-Sandy macro and graphed on Graphpad Prism 5. For analysis, each concentration point is averaged from triplicate values and the averaged values are plotted on Graphpad Prism. The IC50 was determined by applying the following equation (GraphPad Prism 5.0, San Diego) for one site competition where X=log (concentration) and Y=specific binding. Top denotes the total [^3H]— (1-(5-(2-fluoro-phenyl)-2-methyl-thiazol-4-yl)-1-((S)-2-(5-phenyl-(1,3,4)oxadiazol-2-ylmethyl)-pyrrolidin-1-yl)-methanone) binding, bottom denotes the nonspecific [^3H]— (1-(5-(2-fluoro-phenyl)-2-methyl-thiazol-4-yl)-1-((S)-2-(5-phenyl-(1,3,4)oxadiazol-2-ylmethyl)-pyrrolidin-1-yl)-methanone) binding. Graphpad Prism calculates Ki value from IC50 and the pre-determined Kd values for [^3H]— (1-(5-(2-fluoro-phenyl)-2-methyl-thiazol-4-yl)-1-((S)-2-(5-phenyl-(1,3,4)oxadiazol-2-ylmethyl)-pyrrolidin-1-yl)-methanone) and [^3H]-EMPA. The Ki for each compound is then uploaded into 3DX. Each run comprises individual compounds in triplicate. The data in Table 1 and Table 2 represent averages from between 2-20 runs
Human Orexin 2 Receptor Radioligand Binding Studies
HEK293 stably expressing human orexin 2 receptor (Genebank accession number NM_001526) were grown to confluency in DMEM (Hyclone, cat # SH30022), 10% FBS, 1× Pen/Strep, 1× NaPyruvate, 10 mM HEPES, 600 μg/ml G418 media on 150 cm^2 tissue culture plates, washed with 5 mM EDTA in PBS (HyClone Dulbecco's Phosphate Buffered Saline 1× with Calcium and Magnesium, Cat # SH30264.01, hereafter referred to simply as PBS) and scraped into 50 ml tubes. After centrifugation (2K×G, 5 min at 4° C.), the supernatant was aspirated and the pellets frozen and stored at −80° C. Cells were resuspended in PBS in the presence of 1 tablet of protease inhibitor cocktail (Roche, Cat. #11836145001) per 50 mL. […] Compounds were solubilized in 100% DMSO (Acros Organics, Cat. #61042-1000) and tested over a range of 7 concentration (from 0.1 nM to 10 μM). The final concentration of DMSO in the reactions is equal to or less than 0.1%. Total and nonspecific binding was determined in the absence and presence of 10 μM almorexant. The total volume of each reaction is 200 μL (20 μL of diluted compounds, 80 μL of [^3H]-EMPA diluted in PBS and 100 μL of the cell suspension). Reactions were run for 60 min at room temperature and terminated by filtration through GF/C filter plates (PerkinElmer, Cat. #6005174) presoaked in 0.3% polyethylenimine using the cell harvester (PerkinElmer Filtermate). The plates were washed 3 times by aspirating 30 ml PBS through the plates. Plates were dried in 55° C. oven for 60 min, scintillation fluid was added, and the radioactivity was counted on a Topcount (Packard).

The target of a further assay is rat orexin 1 receptor (Rattus norvegicus, UniProt P56718). Briefly: Rat orexin 1 receptor radioligand binding (competitive). To be noted: HEK293 cells stably expressing rat orexin 1 receptor; 4 nM radioligand; averages of 2-20 runs; read-out: rOX1 Ki. The method, then:
as §1, §2
Rat and Human Orexin 1 Receptor Radioligand Binding Studies
Human Embryonic Kidney 293 cells (HEK293) stably expressing rat orexin 1 receptor (Genebank accession number NM_001525) or Chinese ovary cells (CHO) stably expressing human orexin 1 receptor (Genebank accession number […]) were grown to confluency in DMEM (Hyclone, cat # SH30022), 10% FBS, 1× Pen/Strep, 1× sodium pyruvate, 10 mM HEPES, 600 μg/mL G418 and DMEM/F12 (Gibco, Cat #11039), 10% FBS, 1× Pen/Strep, 600 μg/mL G418 media, respectively on 150 cm^2 tissue culture plates, washed with 5 mM EDTA in PBS (HyClone Dulbecco's Phosphate Buffered Saline 1× with Calcium and Magnesium, Cat # SH30264.01, hereafter referred to simply as PBS) and scraped into 50 ml tubes. After centrifugation (2K×G, 5 min at 4° C.), the supernatant was aspirated and the pellets frozen and stored at −80° C. Cells were resuspended in PBS in the presence of 1 tablet of protease inhibitor cocktail (Roche, Cat. #11836145001) per 50 mL. […] Competition binding experiments in 96 well polypropylene plates were performed using [^3H]— (1-(5-(2-fluoro-phenyl)-2-methyl-thiazol-4-yl)-1-((S)-2-(5-phenyl-(1,3,4)oxadiazol-2-ylmethyl)-pyrrolidin-1-yl)-methanone) (Moraveck Corporation, specific activity=35.3 Ci/mmol), diluted to a 10 nM concentration in PBS (4 nM final). Compounds were solubilized in 100% DMSO (Acros Organics, Cat. #61042-1000) and tested over a range of 7 concentrations (from 0.1 nM to 10 μM). The final concentration of DMSO in the reactions is equal to or less than 0.1%. Total and nonspecific binding was determined in the absence and presence of 10 μM almorexant. The total volume of each reaction is 200 μL (20 μL of diluted compounds, 80 μL of [^3H]— (1-(5-(2-fluoro-phenyl)-2-methyl-thiazol-4-yl)-1-((S)-2-(5-phenyl-(1,3,4)oxadiazol-2-ylmethyl)-pyrrolidin-1-yl)-methanone) diluted in PBS and 100 μL of the cell suspension). Reactions were run for 60 min at room temperature and terminated by filtration through GF/C filter plates (PerkinElmer, Cat. #6005174) presoaked in 0.3% polyethylenimine using the cell harvester (PerkinElmer Filtermate). The plates were washed 3 times by aspirating 30 ml PBS through the plates. Plates were dried in 55° C. oven for 60 min, scintillation fluid was added, and the radioactivity was counted on a Topcount (Packard). […]

Molecules are shown by their SMILES. A value given as a limit tells only on which side of the number the result lay.

Sequence of human orexin 2 receptor (O43614 whole entry): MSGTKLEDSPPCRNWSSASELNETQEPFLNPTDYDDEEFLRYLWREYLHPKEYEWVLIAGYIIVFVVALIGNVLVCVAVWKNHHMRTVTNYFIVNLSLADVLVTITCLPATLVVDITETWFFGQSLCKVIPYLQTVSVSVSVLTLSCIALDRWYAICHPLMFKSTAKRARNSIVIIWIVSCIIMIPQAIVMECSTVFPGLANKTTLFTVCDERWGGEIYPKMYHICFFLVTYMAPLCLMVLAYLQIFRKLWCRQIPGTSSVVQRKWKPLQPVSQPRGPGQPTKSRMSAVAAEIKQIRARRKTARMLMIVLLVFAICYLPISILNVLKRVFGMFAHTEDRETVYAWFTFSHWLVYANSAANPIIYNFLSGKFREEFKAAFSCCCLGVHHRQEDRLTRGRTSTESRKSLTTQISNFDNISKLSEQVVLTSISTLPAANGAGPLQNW

Consider `C[C@@H]1[C@H]2C[C@@H](Oc3ccc(C(F)(F)F)nc3)[C@H](C2)N1C(=O)c1ncccc1-n1nccn1` (relative stereo) [Example 37, (3-(2H-1,2,3-triazol-2-yl)pyridin-2-yl)((1S*,3R*,4R*,6R*)-3-methyl-6-((6-(trifluoromethyl)pyridin-3-yl)oxy)-2-azabicyclo[2.2.1]heptan-2-yl)methanone], for which the Ki at human orexin 2 receptor is greater than 10000 nM; at rat orexin 1 receptor, 3720 nM. As for `Cc1ccc(-n2nccn2)c(C(=O)N2[C@H](C)[C@H]3C[C@@H](Oc4ccc(C(F)(F)F)nc4)[C@@H]2C3)n1` (relative stereo) [Example 40, (6-methyl-3-(2H-1,2,3-triazol-2-yl)pyridin-2-yl)((1S*,3R*,4R*,6R*)-3-methyl-6-((6-(trifluoromethyl)pyridin-3-yl)oxy)-2-azabicyclo[2.2.1]heptan-2-yl)methanone], the Ki on human orexin 2 receptor is greater than 10000 nM; at rat orexin 1 receptor it was 544 nM. `CC1C2CC(Oc3ccc(C(F)(F)F)cn3)C(C2)N1C(=O)c1ccccc1-c1ncc(F)cn1` (single isomer, unassigned) [Example 19A, (2-(5-fluoropyrimidin-2-yl)phenyl)((1R*,3S*,4S*,6S*)-3-methyl-6-((5-(trifluoromethyl)pyridin-2-yl)oxy)-2-azabicyclo[2.2.1]heptan-2-yl)methanone]: on rat orexin 1 receptor, the Ki is 746 nM. As for `CC1C2CC(Oc3ccc(C(F)(F)F)cn3)C(C2)N1C(=O)c1cccc(F)c1-c1ncc(F)cn1` (single isomer, unassigned) [Example 20A, (3-fluoro-2-(5-fluoropyrimidin-2-yl)phenyl)((1R*,3S*,4S*,6S*)-3-methyl-6-((5-(trifluoromethyl)pyridin-2-yl)oxy)-2-azabicyclo[2.2.1]heptan-2-yl)methanone], the Ki on human orexin 2 receptor is greater than 10000 nM. Still for that read-out and setting: then `CC1C2CC(Oc3ccc(C(F)(F)F)cn3)C(C2)N1C(=O)c1cccc(F)c1-c1ncc(F)cn1` (single isomer, unassigned) [Example 20B, (3-fluoro-2-(5-fluoropyrimidin-2-yl)phenyl)((1S*,3R*,4R*,6R*)-3-methyl-6-((5-(trifluoromethyl)pyridin-2-yl)oxy)-2-azabicyclo[2.2.1]heptan-2-yl)methanone], with 1890 nM; and `CC1C2CC(Nc3cnc(C(F)(F)F)cn3)C(C2)N1C(=O)c1ccccc1-n1nccn1` (single isomer, unassigned) [Example 68A, (2-(2H-1,2,3-triazol-2-yl)phenyl)((1R*,3S*,4R*,6S*)-3-methyl-6-((5-(trifluoromethyl)pyrazin-2-yl)amino)-2-azabicyclo[2.2.1]heptan-2-yl)methanone], with greater than 10000 nM; and `CC1C2CC(Nc3cnc(C(F)(F)F)cn3)C(C2)N1C(=O)c1ccccc1-n1nccn1` (single isomer, unassigned) [Example 68B, (2-(2H-1,2,3-triazol-2-yl)phenyl)((1S*,3R*,4S*,6R*)-3-methyl-6-((5-(trifluoromethyl)pyrazin-2-yl)amino)-2-azabicyclo[2.2.1]heptan-2-yl)methanone], with 259 nM. Same read-out and setting: then `Cc1ccc(-n2nccn2)c(C(=O)N2C(C)C3CC(Nc4cnc(C(F)(F)F)cn4)C2C3)n1` (single isomer, unassigned) [Example 69, (R/S)-(6-methyl-3-(2H-1,2,3-triazol-2-yl)pyridin-2-yl)(3-methyl-6-((5-(trifluoromethyl)pyrazin-2-yl)amino)-2-azabicyclo[2.2.1]heptan-2-yl)methanone], with 345 nM; and `Cc1ccc(-n2nccn2)c(C(=O)N2C(C)C3CC(Nc4cnc(C(F)(F)F)cn4)C2C3)n1` (single isomer, unassigned) [Example 69A, (6-methyl-3-(2H-1,2,3-triazol-2-yl)pyridin-2-yl)((1R*,3S*,4R*,6S*)-3-methyl-6-((5-(trifluoromethyl)pyrazin-2-yl)amino)-2-azabicyclo[2.2.1]heptan-2-yl)methanone], with greater than 10000 nM. For `Cc1ccc(-n2nccn2)c(C(=O)N2C(C)C3CC(Nc4cnc(C(F)(F)F)cn4)C2C3)n1` (single isomer, unassigned) [Example 69B, (6-methyl-3-(2H-1,2,3-triazol-2-yl)pyridin-2-yl)((1S*,3R*,4S*,6R*)-3-methyl-6-((5-(trifluoromethyl)pyrazin-2-yl)amino)-2-azabicyclo[2.2.1]heptan-2-yl)methanone], on human orexin 2 receptor, the inhibition constant (Ki) worked out at 236 nM. Still for that read-out and setting: then `[2H]C([2H])([2H])[C@]1([2H])[C@H]2C[C@@H](Oc3ccc(C(F)(F)F)cn3)[C@H](C2)N1C(=O)c1ncc(C)cc1-n1nccn1` [Example 166, [(1R,2R,4S,5R)-2-deuterio-2-(trideuteriomethyl)-5-[[5-(trifluoromethyl)-2-pyridyl]oxy]-3-azabicyclo[2.2.1]heptan-3-yl]-[5-methyl-3-(triazol-2-yl)-2-pyridyl]methanone], with 1100 nM; and `[2H]C([2H])([2H])[C@]1([2H])[C@H]2C[C@@H](Oc3ccc(C(F)(F)F)cn3)[C@H](C2)N1C(=O)c1cc(F)ccc1-c1ncccn1` [Example 167, [(1R,2R,4S,5R)-2-deuterio-2-(trideuteriomethyl)-5-[[5-(trifluoromethyl)-2-pyridyl]oxy]-3-azabicyclo[2.2.1]heptan-3-yl]-(5-fluoro-2-pyrimidin-2-yl-phenyl)methanone], with 767 nM; and `[2H]C1([2H])[C@H]2C[C@@H]([C@@H]1Oc1ccc(C(F)(F)F)cn1)N(C(=O)c1ncc(C)cc1-n1nccn1)[C@@H]2C` [Example 200, [(1R,3R,4S,6R)-2,2-dideuterio-6-methyl-3-[[5-(trifluoromethyl)-2-pyridyl]oxy]-5-azabicyclo[2.2.1]heptan-5-yl]-[5-methyl-3-(triazol-2-yl)-2-pyridyl]methanone], with 1200 nM.
